Assay results: ChEMBL document CHEMBL6109039, “Designed and synthesized novel tripeptides targeting diabetes and its related pathologies” (Eur J Med Chem, 2025)
The source made the active and inactive calls. Residues, ends and D or L forms follow the SMILES beside them.

Legend:
[1] = system: N=C(N)NCCC[C@H](N)C(=O)N[C@@H](Cc1c[nH]c2ccccc12)C(=O)N[C@@H](Cc1c[nH]c2ccccc12)C(=O)O; assay: Competitive inhibition of Alpha-glucosidase (unknown origin) using p-nitrophenyl-alpha-D-glucopyranoside as substrate assessed as Km pre-incubated for 10 mins followed by substrate addition and measured after 5 mins by Lineweaver-Burk plot analysis (reference value: 1.785 mM); format: protein assay; conditions: Homo sapiens; time 15.0 min
[2] = system: N=C(N)NCCC[C@H](N)C(=O)N[C@@H](Cc1c[nH]c2ccccc12)C(=O)N[C@@H](Cc1c[nH]c2ccccc12)C(=O)O; assay: Competitive inhibition of Alpha-glucosidase (unknown origin) using p-nitrophenyl-alpha-D-glucopyranoside as substrate assessed as maximum velocity pre-incubated for 10 mins followed by substrate addition and measured after 5 mins by Lineweaver-Burk plot analysis (reference value: 0.802); format: protein assay; conditions: Homo sapiens; time 15.0 min
[3] = system: Mus musculus; assay: Antidiabetic activity in STZ induced male Balb/c mouse model assessed as ordered nephron cells with glomeruli at 63.81 ug/kg, ip treated for 21 days; format: functional, organism-based; conditions: dose 63.81 µg/kg, time 21.0 day
[4] = system: Mus musculus; assay: Antidiabetic activity in STZ induced male Balb/c mouse model assessed as reduction in bowman's space at 63.81 ug/kg, ip treated for 21 days; format: functional, organism-based; conditions: dose 63.81 µg/kg, time 21.0 day
[5] = system: Mus musculus; assay: Antidiabetic activity in STZ induced male Balb/c mouse model assessed as reduction in glomerulus diameter at 63.81 ug/kg, ip treated for 21 days; format: functional, organism-based; conditions: dose 63.81 µg/kg, time 21.0 day
[6] = system: Mus musculus; assay: Antidiabetic activity in STZ induced male Balb/c mouse model assessed as appearance of tubule epithelium at 63.81 ug/kg, ip treated for 21 days; format: functional, organism-based; conditions: dose 63.81 µg/kg, time 21.0 day
[7] = biological target: T1, Pancreatic alpha-amylase (Sus scrofa) (UniProt P00690); assay: Mixed type inhibition of porcine pancreatic Alpha-amylase using starch as substrate pre-incubated for 20 mins followed by substrate addition and measured after 15 mins by DNS reagent based absorbance assay; conditions: time 35.0 min
T1 sequence (whole entry): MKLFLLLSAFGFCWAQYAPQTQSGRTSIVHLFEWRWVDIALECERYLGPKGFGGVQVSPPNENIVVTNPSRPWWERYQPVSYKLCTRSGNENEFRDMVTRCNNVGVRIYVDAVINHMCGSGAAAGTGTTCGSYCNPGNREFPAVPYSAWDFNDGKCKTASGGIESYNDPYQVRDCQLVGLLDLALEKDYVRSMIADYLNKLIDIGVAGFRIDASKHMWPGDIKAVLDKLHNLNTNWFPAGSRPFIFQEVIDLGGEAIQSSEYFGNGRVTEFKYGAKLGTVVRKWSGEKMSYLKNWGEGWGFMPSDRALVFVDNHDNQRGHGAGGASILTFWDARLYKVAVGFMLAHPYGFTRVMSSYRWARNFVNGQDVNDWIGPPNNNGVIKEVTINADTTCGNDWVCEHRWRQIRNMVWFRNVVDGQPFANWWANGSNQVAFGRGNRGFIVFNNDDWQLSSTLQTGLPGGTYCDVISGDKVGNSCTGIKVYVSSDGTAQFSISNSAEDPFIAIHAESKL

[8] = system: Mus musculus; assay: Antidiabetic activity in STZ induced male Balb/c mouse model assessed as amelioration of abnormal nephron cell morphology at 10 mg/kg, po treated for 21 days; format: functional, organism-based; conditions: time 21.0 day
[9] = system: Mus musculus; assay: Antidiabetic activity in STZ induced male Balb/c mouse model assessed as amelioration of endocytic vacuole content at 10 mg/kg, po treated for 21 days; format: functional, organism-based; conditions: time 21.0 day
[10] = system: Mus musculus; assay: Antidiabetic activity in STZ induced male Balb/c mouse model assessed as amelioration of glomerular necrosis at 10 mg/kg, po treated for 21 days; format: functional, organism-based; conditions: time 21.0 day
[11] = system: Mus musculus; assay: Antidiabetic activity in STZ induced male Balb/c mouse model assessed as amelioration of glomerular shrinkage at 10 mg/kg, po treated for 21 days; format: functional, organism-based; conditions: time 21.0 day
[12] = system: Mus musculus; assay: Antidiabetic activity in STZ induced male Balb/c mouse model assessed as amelioration of tubular necrosis at 10 mg/kg, po treated for 21 days; format: functional, organism-based; conditions: time 21.0 day
[13] = system: Mus musculus; assay: Antidiabetic activity in STZ induced male Balb/c mouse model assessed as amelioration of tubular degeneration at 10 mg/kg, po treated for 21 days; format: functional, organism-based; conditions: time 21.0 day

Alpha glucosidase (Homo sapiens) (from UniProt O43451+P10253+P14410+Q2M2H8)
0.7: Vmax [2]
1370 µM: Km [1]

N=C(N)NCCC[C@H](N)C(=O)N[C@@H](Cc1c[nH]c2ccccc12)C(=O)N[C@@H](Cc1c[nH]c2ccccc12)C(=O)O (H-Arg-Trp-Trp-OH)
active: Activity [3] | Activity [4] | Activity [5] | Activity [6] | inhibition [7]

CCC1=C(C)CN(C(=O)NCCc2ccc(S(=O)(=O)NC(=O)N[C@H]3CC[C@H](C)CC3)cc2)C1=O
active: Activity [8] | Activity [9] | Activity [10] | Activity [11] | Activity [12] | Activity [13]
